Values joined by “and” are separate entries in the source; they are usually repeats but may differ in a detail not shown here. Equal entries are not always repeated.

The test deals with Replicase polyprotein 1ab (Severe acute respiratory syndrome coronavirus 2, UniProt P0DTD1). Put plainly: Functional biochemical assay to identify treatments for viral infectious disease that targets SARS-COV-2 nsp3 macrodomain, whereby the mechanism of action displaces an ADP-Ribose modified peptide from the binding site. Utilizing a time-resolved fluorescence method to measure binding by reading the emitted fluorescence intensity in two wavelengths.
Broadly, the IC50 is the point on the concentration scale where inhibition reaches its midpoint. High values mean a need for much substance, low ones inhibition by little substance. For the molecule `CC(C)[C@H](Nc1ncnc2[nH]ccc12)C(=O)O`, the 50% inhibitory concentration (IC50) was 34.1 µM and 33.8 µM.
With `CNC(=O)c1cc2c(N[C@@H](c3ccc4c(c3)OCCO4)C(C)C)ncnc2[nH]1`, the IC50 was 0.45 µM and 0.366 µM.
For the molecule `CC(C)[C@@H](Nc1ncnc2[nH]c(-c3cnn(CC(N)=O)c3)cc12)c1ccc2c(c1)OCCO2`, the half-maximal inhibitory concentration (IC50) is 0.383 µM and 0.361 µM and 0.247 µM and 0.258 µM.
As for `COC(=O)c1c[nH]c(-c2cc(N[C@@H](c3ccc4c(c3)OCCO4)C(C)C)ncn2)c1`, the concentration for half-maximal inhibition (IC50) was more than 99.5 µM.
Take `CC(C)C[C@@H](Nc1ncnc2[nH]ccc12)C(=O)O`: the IC50 is more than 99.5 µM.
The same measure for `CC(C)[C@@H](Nc1ncnc2[nH]ccc12)c1ccc2c(c1)OCC(=O)N2`: 27.2 µM and 24.2 µM; for `CC(C)(C)[C@@H](Nc1ncnc2[nH]ccc12)c1ccc2c(c1)OCCO2`: 1.23 µM and 1.06 µM; for `O=C(O)[C@@H](CC1CCCCC1)Nc1ncnc2[nH]ccc12`: 74.6 µM and 71.4 µM.
Then `CNc1ccc([C@@H](CC(=O)O)NC(=O)c2ncnc3[nH]ccc23)cc1`, with 28.9 µM and 34.6 µM; and `CNC(=O)c1ccc([C@@H](CC(=O)O)NC(=O)c2ncnc3[nH]ccc23)cc1`, with 9.07 µM and 13.4 µM.
The molecule `CC(C)[C@@H](Nc1cc(-c2c[nH]cn2)ncn1)c1ccc2c(c1)OCCO2` returned an IC50 of more than 99.5 µM.
`O=C(O)[C@@H]1C[C@H](F)CN1c1ncnc2[nH]ccc12` came in with an IC50 of more than 99.5 µM.
On to `O=C(O)[C@@H](CC1CC1)Nc1ncnc2[nH]ccc12`, for which the 50% inhibitory concentration (IC50) is more than 99.5 µM.
In turn, `CCC[C@@H](Nc1ncnc2[nH]ccc12)C(=O)O` registered an IC50 of more than 99.5 µM.
The same measure for `COCc1noc(C)c1-c1cc2c(N[C@@H](c3ccc4c(c3)OCCO4)C(C)C)ncnc2[nH]1`: more than 99.5 µM; for `CC(C)[C@@H](Nc1ncnc2[nH]c(-c3cnoc3)cc12)c1ccc2c(c1)OCCO2`: 29.9 µM and > 99.5 µM.
`C[C@@H](Nc1ncnc2[nH]ccc12)[C@@H]1CCOC1` showed a half-inhibitory concentration (IC50) of more than 99.5 µM.
In turn, `CC(C)[C@@H]1C[C@H](Nc2[nH]cnc3nccc2-3)CCO1` displayed an IC50 of more than 99.5 µM.
On to `COc1cccc([C@@H](CC(=O)O)NC(=O)c2ncnc3[nH]ccc23)c1`, for which the IC50 is 16.3 µM and 21.7 µM.
In the case of `O=C(O)[C@@H]1C[C@@H]2OCC[C@@H]2N1c1ncnc2[nH]ccc12`, the 50% inhibitory concentration (IC50) was more than 99.5 µM.
Take `COc1ccc(CN(c2ncnc3[nH]ccc23)C(C)C)cc1OC`: the concentration for half-maximal inhibition (IC50) is more than 99.5 µM.
`CS(=O)(=O)Nc1cccc([C@@H](CC(=O)O)NC(=O)c2ncnc3[nH]ccc23)c1`: the 50% inhibitory concentration (IC50) is 50.4 µM and 38.6 µM and 39.5 µM.
Consider `CC(C)[C@@H](Nc1ncnc2[nH]ccc12)c1ccc2c(c1)CCCS2(=O)=O`, for which the IC50 was 3.01 µM and 2.64 µM.
`CC(C)[C@@H](Nc1ccc(NC(=O)NC2CC2)cc1)c1ccc2c(c1)OCCO2` gave a half-maximal inhibitory concentration (IC50) of more than 99.5 µM.
Regarding `CN1CC[C@@H]1[C@@H](Nc1ncnc2[nH]ccc12)c1ccc2c(c1)OCCO2`, the half-maximal inhibitory concentration (IC50) is > 99.5 µM and 66 µM.
In the case of `c1nc(N[C@@H](c2ccc3c(c2)OCCO3)C2CCC2)c2cc[nH]c2n1`, the half-inhibitory concentration (IC50) is 5.2 µM and 6.52 µM.
Turning to `CC(C)[C@@H](Nc1ncnc2[nH]ccc12)c1cnn(C)c1`, the IC50 was 3.93 µM and 3.17 µM.
Consider `Cc1nnc(Nc2ccc(C(=O)N[C@@H]3c4cccc(O)c4C[C@H]3C(=O)O)cc2)o1`, for which the IC50 is 25.3 µM and 26 µM.
Take `COc1nc(N[C@@H](c2ccc3c(c2)OCCO3)C(C)C)c2cc[nH]c2n1`: the half-inhibitory concentration (IC50) is more than 99.5 µM.
The same measure for `N=C(N)C[C@@H](NC(=O)c1ncnc2[nH]ccc12)c1ccc(Br)cc1`: more than 99.5 µM; for `O=C(O)[C@@H](CC(F)F)Nc1ncnc2[nH]ccc12`: 80.7 µM and 94.4 µM; for `O=C(O)[C@@H](Nc1ncnc2[nH]ccc12)C1CC1`: 72.2 µM and 72 µM.
`CNC(=N)C[C@@H](NC(=O)c1ncnc2[nH]ccc12)c1ccc(Br)cc1` came in with an IC50 of more than 99.5 µM.
Then `O=C(Nc1cccc2c(C(=O)N[C@H]3c4ccccc4C[C@H]3C(=O)O)c[nH]c12)NC1CC1`, with 7.83 µM and 6.58 µM; and `CC(C)[C@@H](Nc1ncnc2[nH]ccc12)c1cccc(C(F)(F)F)c1`, with 83.2 µM and 77.6 µM.
On to `C[C@@H](Nc1ncnc2[nH]ccc12)[C@@H]1CCCCO1`, for which the IC50 is more than 99.5 µM.
On to `O=C(O)[C@@H]1[C@@H](c2ccccc2)CCN1c1ncnc2[nH]ccc12`, for which the IC50 is more than 99.5 µM.
With `CNc1nc(N[C@@H](c2ccc3c(c2)OCCO3)C(C)C)c2cc[nH]c2n1`, the IC50 is more than 99.5 µM.
As for `Cc1nn(CC(C)C)c(Cl)c1[C@@H]1CCCN1c1ncnc2[nH]ccc12`, the IC50 was more than 99.5 µM.
`O=C(Nc1ccc(C(=O)Nc2c(C(=O)O)oc3cc(Br)ccc23)cc1)NC1CC1` gave a 50% inhibitory concentration (IC50) of more than 99.5 µM.
On to `O=C(Nc1ccc(C(=O)N[C@@H]2c3ccccc3C[C@@H]2C(=O)O)cc1)c1ccc2c(c1)OCCO2`, for which the 50% inhibitory concentration (IC50) is more than 99.5 µM.
In the case of `COc1ccc([C@@H](Nc2ncnc3[nH]ccc23)C(C)C)cc1OC`, the half-inhibitory concentration (IC50) was more than 99.5 µM.
As to `CC(C)[C@@H](Nc1ncnc2[nH]cc(C#N)c12)c1ccc2c(c1)OCCO2`, the concentration for half-maximal inhibition (IC50) is 4.36 µM and 3.82 µM.
Regarding `FC(F)[C@@H](Nc1ncnc2[nH]ccc12)c1ccc2c(c1)OCCO2`, the IC50 is 16 µM and 22.8 µM.
Turning to `COc1ccc([C@@H](Cc2nn[nH]n2)NC(=O)c2nc(C)nc3[nH]ccc23)cc1`, the 50% inhibitory concentration (IC50) is 1.84 µM and 1.65 µM.
Then `O[C@@H]1CCCC[C@@H]1Nc1ncnc2[nH]ccc12`, with > 99.5 µM and 95.3 µM; and `CNC(=O)c1cccc([C@@H](CC(=O)O)NC(=O)c2ncnc3[nH]ccc23)c1`, with 18.7 µM and 17.4 µM.
On to `CC(C)[C@@H](Nc1ncnc2[nH]ccc12)c1ccc2c(c1)C(=O)NCC2`, for which the IC50 is 2.25 µM and 2.44 µM.
The same measure for `COc1ccc([C@@H](Cc2nn[nH]n2)NC(=O)c2nc(OC)nc3[nH]ccc23)cc1`: 4.55 µM and 4.97 µM; for `O=C(O)C[C@@H](NC(=O)c1ncnc2[nH]c3cc(F)ccc3c12)c1ccc(Br)cc1`: 0.992 µM and 1.01 µM; for `CC(C)[C@@H](Nc1ncc2c(n1)CCCC2)c1ccc2c(c1)OCCO2`: more than 99.5 µM.
Then `CC(C)[C@@H](Nc1cc(-c2cc[nH]n2)ncn1)c1ccc2c(c1)OCCO2`, with more than 99.5 µM; and `CC(C)[C@@H](Nc1cnc(C(=O)O)cn1)c1ccc2c(c1)OCCO2`, with more than 99.5 µM; and `Cc1nnc(Nc2ccc(C(=O)N[C@@H]3c4cccc(O)c4C[C@@H]3C(=O)O)cc2)o1`, with 7.16 µM and 7.38 µM.
As for `O=C(O)C[C@@H](NC(=O)c1ccc(NC(=O)NC2CC2)cc1)c1cccnc1`, the IC50 is 77.1 µM and 68.2 µM.
As to `c1nc(N2CCC[C@@H]2c2ccc3c(c2)OCCO3)c2cc[nH]c2n1`, the IC50 was more than 99.5 µM.
In the case of `CNc1cccc([C@@H](CC(=O)O)NC(=O)c2ncnc3[nH]ccc23)c1`, the concentration for half-maximal inhibition (IC50) is 66.3 µM and 25.7 µM.
Take `CC(C)[C@@H](Nc1ncnc2[nH]ccc12)c1ccc2c(c1)CCNC2=O`: the IC50 was 15.3 µM and 15 µM.
The same measure for `O=C(O)C[C@@H](NC(=O)c1ccc(NC(=O)NC2CC2)cc1)c1cccc(C(F)F)c1`: 76.4 µM and 72.3 µM; for `CC(C)[C@@H](Nc1ncnc2[nH]c(-c3cc[nH]n3)cc12)c1ccc2c(c1)OCCO2`: 1.81 µM and 1.88 µM.
For the molecule `O=C(O)C[C@H](NC(=O)c1ccc(NC(=O)NC2CC2)cc1)c1cccnc1`, the IC50 is 50.1 µM and 58.4 µM.
Consider `Cc1[nH]c2ncnc(NC(=O)c3ccc(-n4cccc4)nc3)c2c1C`, for which the IC50 is more than 99.5 µM.
In the case of `Cc1nnc(Nc2ccc(C(=O)N[C@H]3c4cccc(O)c4C[C@H]3C(=O)O)cc2)o1`, the concentration for half-maximal inhibition (IC50) was more than 99.5 µM.
For the molecule `COc1ccc([C@@H](CC(=O)O)NC(=O)c2cc3cccc(NC(=O)NC4CC4)c3[nH]2)cc1`, the IC50 was more than 99.5 µM.
Consider `CC(=O)Nc1cccc([C@@H](CC(=O)O)NC(=O)c2ncnc3[nH]ccc23)c1`, for which the IC50 was 25.8 µM and > 12.4 µM and 20.7 µM.
`c1nc(N[C@@H](C2CC2)[C@@H]2CCCOC2)c2cc[nH]c2n1`: the half-inhibitory concentration (IC50) is more than 99.5 µM.
`Cc1nnc(Nc2ccc(C(=O)N[C@H]3c4cccc(O)c4C[C@@H]3C(=O)O)cc2)o1` yielded an IC50 of more than 99.5 µM.
Turning to `O=C(O)C[C@@H](NC(=O)c1ccc(NC(=O)NC2CC2)cc1)C1CCOCC1`, the IC50 was more than 99.5 µM.
`CC(C)c1nc(N[C@@H](c2ccc3c(c2)OCCO3)C(C)C)c2cc[nH]c2n1`: the IC50 was more than 99.5 µM.
With `O=C(O)[C@@H](Nc1ncnc2[nH]ccc12)c1ccc2c(c1)OCCO2`, the IC50 is 9.41 µM and 7.95 µM.
`CO[C@@H]1C[C@@H](C(=O)O)N(c2ncnc3[nH]ccc23)C1` gave an IC50 of more than 99.5 µM.
Consider `CC(C)[C@@H](Nc1ncnc2[nH]ccc12)c1ccncc1`, for which the IC50 was > 12.4 µM and 34 µM.
For the molecule `CC(C)[C@@H](Nc1ncnc2[nH]ccc12)c1ccc2c(c1)N(C)CCO2`, the IC50 is 27.8 µM and 31.7 µM.
The same measure for `O=C(O)[C@H](CC1CC1)Nc1ncnc2[nH]ccc12`: more than 99.5 µM; for `c1nc(N[C@@H](c2ccc3c(c2)OCCO3)C2CNC2)c2cc[nH]c2n1`: more than 99.5 µM.
For the molecule `COc1ccc([C@@H](CC(=O)O)NC(=O)c2ccc(NC(=O)NC3CC3)cc2)cc1`, the 50% inhibitory concentration (IC50) was 57.5 µM and 37.8 µM.
Take `COc1cccc([C@@H](Nc2ncnc3[nH]ccc23)C(C)C)c1`: the half-maximal inhibitory concentration (IC50) was 25.7 µM and 39.9 µM.
Then `O[C@H]1CCCC[C@@H]1Nc1ncnc2[nH]ccc12`, with 55.4 µM and 64.7 µM; and `CC(C)[C@@H](Nc1ncnc2[nH]ccc12)C(=O)O`, with 15.4 µM and 16.8 µM and 20.9 µM and 20.6 µM.
Molecule `C[C@@H](Nc1ncnc2[nH]ccc12)[C@@H]1CCS(=O)(=O)C1` came in with an IC50 of more than 99.5 µM.
For `CNc1nc(C(=O)N[C@@H](Cc2nn[nH]n2)c2ccc(OC)cc2)c2ccnc-2[nH]1`, the half-maximal inhibitory concentration (IC50) was 45.7 µM and 44.7 µM.
Consider `O=C(O)C[C@@H](NC(=O)c1ccc(NC(=O)NC2CC2)cc1)c1cccc(F)c1`, for which the IC50 is 27.3 µM and 32.5 µM.
Then `CC(C)[C@@H](Nc1ncnc2[nH]cc(Br)c12)c1ccc2c(c1)OCCO2`, with 10.1 µM and 11.8 µM; and `CC(C)[C@@H](Nc1nc(C2CC2)nc2[nH]ccc12)c1ccc2c(c1)OCCO2`, with more than 99.5 µM; and `COc1ccc([C@H](CC(=O)O)NC(=O)c2ccc(NC(=O)NC3CC3)cc2)cc1`, with 54.1 µM and 51.2 µM and 38.1 µM.
`CCC[C@H](Nc1ncnc2[nH]ccc12)C(=O)O` gave a 50% inhibitory concentration (IC50) of more than 99.5 µM.
`c1nc(N[C@@H](c2ccc3c(c2)OCCO3)[C@@H]2CCN2)c2cc[nH]c2n1` yielded an IC50 of more than 99.5 µM.
`O=C(O)[C@@H]1C[C@@H](O)CN1c1ncnc2[nH]ccc12`: the concentration for half-maximal inhibition (IC50) is more than 99.5 µM.
As to `CC(C)[C@@H](Nc1ncnc2[nH]ccc12)c1ccc(C(F)(F)F)cc1`, the IC50 was 46.2 µM and 37.2 µM.
As for `c1nc(N[C@@H](c2ccc3c(c2)OCCO3)C2CCCC2)c2cc[nH]c2n1`, the 50% inhibitory concentration (IC50) is 2.23 µM and 2.25 µM.
With `O=C(O)[C@@H](Nc1ncnc2[nH]ccc12)C1CC(F)(F)C1`, the half-inhibitory concentration (IC50) was more than 99.5 µM.

The values above are taken from ChEMBL document CHEMBL5441456, “ASAP - SARS-CoV-2 nsp3 macrodomain dose response” (2024).
